“And” between values parts separate entries of the source, which are not always exact repeats. Equal values may be shown once.
Biological target: T1, human TAS2R4 (Homo sapiens, UniProt Q9NYW5)
T1 construct: expressed in transfected cells; host or cells: HEK293T-Gα16gust44
T1 sequence (Q9NYW5 1-299): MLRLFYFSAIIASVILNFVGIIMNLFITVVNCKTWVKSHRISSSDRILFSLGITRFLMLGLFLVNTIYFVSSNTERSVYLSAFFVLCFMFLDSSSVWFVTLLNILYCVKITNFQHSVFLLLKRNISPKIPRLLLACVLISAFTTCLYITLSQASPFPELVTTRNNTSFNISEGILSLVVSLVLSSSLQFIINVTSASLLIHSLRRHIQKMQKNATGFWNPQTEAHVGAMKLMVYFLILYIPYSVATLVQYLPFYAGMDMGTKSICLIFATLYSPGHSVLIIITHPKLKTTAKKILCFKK
Assay: Calcium imaging assay (FLIPR), HEK293T-Gα16gust44 cells transfected with human TAS2R4
Type: cell-based
How it was run: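 Read-out is Fluo-4 fluorescence change (ΔF/F) after automated application of bile acids (DMSO stocks) to transiently transfected cells. Values are corrected for empty-vector cells and normalized to buffer. Dose-response from three independent experiments in duplicate; threshold concentration set at p < 0.01 versus mock.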

C[C@H](CCC(=O)O)[C@H]1CC[C@H]2[C@@H]3CC[C@@H]4C[C@H](O)CC[C@]4(C)[C@H]3C[C@H](O)[C@]12C [Deoxycholic Acid, deoxycholic acid]
Efficacy = maximal amplitude (ΔF/F) (TAS2R4, bile acids, mean): 0.08533
Efficacy (maximal amplitude ΔF/F), individual data points (TAS2R4, bile acids, single replicates, listed as DCA): 0.07628 and 0.1105 and 0.06917
RLU, fluorescence trace (Time (s) 0): 0 RLU
RLU, fluorescence trace (Time (s) 2): -24.43 RLU
RLU, fluorescence trace (Time (s) 4): -23.5542 RLU
RLU, fluorescence trace (Time (s) 6): -22.8766 RLU
RLU, fluorescence trace (Time (s) 8): -1.905 RLU
RLU, fluorescence trace (Time (s) 12): -21.8648 RLU
RLU, fluorescence trace (Time (s) 14): -18.1346 RLU
RLU, fluorescence trace (Time (s) 16): -52.8215 RLU
RLU, fluorescence trace (Time (s) 18): -24.2064 RLU
RLU, fluorescence trace (Time (s) 18.766 (TCA, TLCA: 18.782)): -22.8202 RLU
RLU, fluorescence trace (Time (s) 20.781 (TCA, TLCA: 20.782)): -95.6069 RLU
RLU, fluorescence trace (Time (s) 22.781 (TCA, TLCA: 22.782)): -71.6568 RLU
RLU, fluorescence trace (Time (s) 24.781 (TCA, TLCA: 24.782)): -40.8819 RLU
RLU, fluorescence trace (Time (s) 26.781 (TCA, TLCA: 26.782)): -9.811 RLU
RLU, fluorescence trace (Time (s) 28.781 (TCA, TLCA: 28.782)): 38.1772 RLU
RLU, fluorescence trace (Time (s) 30.781 (TCA, TLCA: 30.782)): 89.531 RLU
RLU, fluorescence trace (Time (s) 32.781 (TCA, TLCA: 32.782)): 109 RLU
RLU, fluorescence trace (Time (s) 34.781 (TCA, TLCA: 34.782)): 155.799 RLU
RLU, fluorescence trace (Time (s) 36.781 (TCA, TLCA: 36.782)): 198.766 RLU
RLU, fluorescence trace (Time (s) 38.781 (TCA, TLCA: 38.782)): 215 RLU
RLU, fluorescence trace (Time (s) 40.781 (TCA, TLCA: 40.782)): 245.601 RLU
RLU, fluorescence trace (Time (s) 42.781 (TCA, TLCA: 42.782)): 273.234 RLU
RLU, fluorescence trace (Time (s) 44.781 (TCA, TLCA: 44.782)): 289.793 RLU
RLU, fluorescence trace (Time (s) 46.781 (TCA, TLCA: 46.782)): 293.169 RLU
RLU, fluorescence trace (Time (s) 48.781 (TCA, TLCA: 48.782)): 315.257 RLU
RLU, fluorescence trace (Time (s) 50.781 (TCA, TLCA: 50.782)): 327.06 RLU
RLU, fluorescence trace (Time (s) 52.781 (TCA, TLCA: 52.782)): 336.965 RLU
RLU, fluorescence trace (Time (s) 54.781 (TCA, TLCA: 54.782)): 356.774 RLU
RLU, fluorescence trace (Time (s) 56.781 (TCA, TLCA: 56.782)): 358.021 RLU
RLU, fluorescence trace (Time (s) 58.781 (TCA, TLCA: 58.782)): 377.086 RLU
RLU, fluorescence trace (Time (s) 60.781 (TCA, TLCA: 60.782)): 371.413 RLU
RLU, fluorescence trace (Time (s) 62.781 (TCA, TLCA: 62.782)): 354.175 RLU
RLU, fluorescence trace (Time (s) 64.781 (TCA, TLCA: 64.782)): 367.028 RLU
RLU, fluorescence trace (Time (s) 66.781 (TCA, TLCA: 66.782)): 369.018 RLU
RLU, fluorescence trace (Time (s) 68.781 (TCA, TLCA: 68.782)): 401.767 RLU
RLU, fluorescence trace (Time (s) 70.781 (TCA, TLCA: 70.782)): 369.499 RLU
RLU, fluorescence trace (Time (s) 72.781 (TCA, TLCA: 72.782)): 371.417 RLU
RLU, fluorescence trace (Time (s) 74.781 (TCA, TLCA: 74.782)): 395.575 RLU
RLU, fluorescence trace (Time (s) 76.781 (TCA, TLCA: 76.782)): 372.212 RLU
RLU, fluorescence trace (Time (s) 78.781 (TCA, TLCA: 78.782)): 381.123 RLU
RLU, fluorescence trace (Time (s) 80.781 (TCA, TLCA: 80.782)): 377.573 RLU
RLU, fluorescence trace (Time (s) 82.781 (TCA, TLCA: 82.782)): 366.542 RLU
RLU, fluorescence trace (Time (s) 84.781 (TCA, TLCA: 84.782)): 344.412 RLU
RLU, fluorescence trace (Time (s) 86.781 (TCA, TLCA: 86.782)): 365.264 RLU
RLU, fluorescence trace (Time (s) 88.781 (TCA, TLCA: 88.782)): 345.388 RLU
RLU, fluorescence trace (Time (s) 90.781 (TCA, TLCA: 90.782)): 349.245 RLU
RLU, fluorescence trace (Time (s) 92.781 (TCA, TLCA: 92.782)): 348.005 RLU
RLU, fluorescence trace (Time (s) 94.781 (TCA, TLCA: 94.782)): 360.114 RLU
RLU, fluorescence trace (Time (s) 96.781 (TCA, TLCA: 96.782)): 353.364 RLU
RLU, fluorescence trace (Time (s) 98.781 (TCA, TLCA: 98.782)): 356.212 RLU
RLU, fluorescence trace (Time (s) 100.781 (TCA, TLCA: 100.782)): 338.006 RLU
RLU, fluorescence trace (Time (s) 102.781 (TCA, TLCA: 102.782)): 349.375 RLU
RLU, fluorescence trace (Time (s) 104.781 (TCA, TLCA: 104.782)): 357.725 RLU
RLU, fluorescence trace (Time (s) 106.781 (TCA, TLCA: 106.782)): 339.949 RLU
RLU, fluorescence trace (Time (s) 108.781 (TCA, TLCA: 108.782)): 333.434 RLU
RLU, fluorescence trace (Time (s) 110.781 (TCA, TLCA: 110.782)): 336.947 RLU
RLU, fluorescence trace (Time (s) 112.781 (TCA, TLCA: 112.782)): 335.627 RLU
RLU, fluorescence trace (Time (s) 114.781 (TCA, TLCA: 114.782)): 349.641 RLU
RLU, fluorescence trace (Time (s) 116.781 (TCA, TLCA: 116.782)): 340.242 RLU
RLU, fluorescence trace (Time (s) 118.781 (TCA, TLCA: 118.782)): 328.36 RLU
RLU, fluorescence trace (Time (s) 120.781 (TCA, TLCA: 120.782)): 338.913 RLU
RLU, fluorescence trace (Time (s) 122.781 (TCA, TLCA: 122.782)): 364.894 RLU
RLU, fluorescence trace (Time (s) 124.781 (TCA, TLCA: 124.782)): 333.589 RLU
RLU, fluorescence trace (Time (s) 126.781 (TCA, TLCA: 126.782)): 335.132 RLU
RLU, fluorescence trace (Time (s) 128.781 (TCA, TLCA: 128.782)): 319.908 RLU
RLU, fluorescence trace (Time (s) 130.781 (TCA, TLCA: 130.782)): 356.29 RLU
RLU, fluorescence trace (Time (s) 132.781 (TCA, TLCA: 132.782)): 335.417 RLU
RLU, fluorescence trace (Time (s) 134.781 (TCA, TLCA: 134.782)): 327.442 RLU
RLU, fluorescence trace (Time (s) 136.781 (TCA, TLCA: 136.782)): 323.134 RLU
RLU, fluorescence trace (Time (s) 137.547): 342.47 RLU
RLU, fluorescence trace (Time (s) 143.547): 333.389 RLU
RLU, fluorescence trace (Time (s) 149.547): 328.288 RLU
RLU, fluorescence trace (Time (s) 155.547): 355.055 RLU
RLU, fluorescence trace (Time (s) 161.547): 338.156 RLU
RLU, fluorescence trace (Time (s) 167.547): 335.87 RLU
RLU, fluorescence trace (Time (s) 173.547): 351.387 RLU
RLU, fluorescence trace (Time (s) 179.547): 368.586 RLU
RLU, fluorescence trace (Time (s) 185.547): 363.986 RLU
RLU, fluorescence trace (Time (s) 191.547): 372.236 RLU
RLU, fluorescence trace (Time (s) 197.547): 331.461 RLU
RLU, fluorescence trace (Time (s) 203.547): 345.855 RLU
RLU, fluorescence trace (Time (s) 209.547): 348.008 RLU
RLU, fluorescence trace (Time (s) 215.547): 318.834 RLU
RLU, fluorescence trace (Time (s) 221.547): 327.885 RLU
RLU, fluorescence trace (Time (s) 227.547): 345.298 RLU
RLU, fluorescence trace (Time (s) 233.547): 352.884 RLU
RLU, fluorescence trace (Time (s) 239.547): 389.33 RLU
RLU, fluorescence trace (Time (s) 245.547): 399.649 RLU
RLU, fluorescence trace (Time (s) 293.547): 411.409 RLU
RLU, fluorescence trace (Time (s) 299.547): 406.435 RLU
RLU, fluorescence trace (Time (s) 305.547): 380.1 RLU
RLU, fluorescence trace (Time (s) 311.547): 396.715 RLU
RLU, fluorescence trace (Time (s) 317.547): 351.706 RLU
RLU, fluorescence trace (Time (s) 323.547): 391.589 RLU
RLU, fluorescence trace (Time (s) 329.547): 362.796 RLU
RLU, fluorescence trace (Time (s) 335.547): 360.917 RLU
RLU, fluorescence trace (Time (s) 341.547): 350.479 RLU
RLU, fluorescence trace (Time (s) 347.547): 349.654 RLU
RLU, fluorescence trace (Time (s) 353.547): 326.897 RLU
RLU, fluorescence trace (Time (s) 359.547): 343.746 RLU
Activation threshold concentration TAS2R4 (lowest concentration with significantly increased fluorescence vs empty vector (p < 0.01)): 3 µM

— PMC10247784, “Physiological activation of human and mouse bitter taste receptors by bile acids” (Communications Biology, 2023)
